According to patent publication US4124578A, “Antiovulatory polypeptides” (American Home Products Corporation, priority 1978, dated 1978):
Non-standard residues stand in square brackets, D forms with d. Residues, ends and D or L forms follow the SMILES beside them. pGlu = O=C1CC[C@@H](C(=O)O)N1

Columns and labels:
[1] = test system: luteinizing hormone (LH) release; conditions: in vivo, rat; cited from earlier work
spontaneous ovulation = assay: Inhibition of spontaneous ovulation in female rats; type: in vivo, rat; conditions: subcutaneous injections in oil on afternoon of proestrus, adult female rats; for Number of Ovulating Rats: ovulating/total
Procedure: (§1) The rats are sacrificed the next morning (estrus), and the number of animals ovulating and the number of ova identified under a disecting microscope are recorded. The absence of, or a significant decrease in, the number of ova is the criterion for an anti-ovulary effect.

[2] = CNS depression noted during the anti-ovulatory test; type: in vivo, rat; conditions: at the anti-ovulatory dose (6 mg., subcutaneous in oil), female rats
Procedure: as §1

[3] = test system: Follicle stimulating hormone (FSH) release; conditions: in vivo, rat; cited from earlier work

Molecule | release of luteinizing hormone (LH) [1] | % Inhibition of Ovulation (spontaneous ovulation; Dose 6 mg.) [%] | Number of Ovulating Rats (spontaneous ovulation; Dose 6 mg.) | also measured
[pGlu]YRWGHL-NH2 | release LH |  |  | 
CCNC(=O)[C@@H]1CCCN1C(=O)[C@H](CCCNC(=N)N)NC(=O)[C@H](CC(C)C)NC(=O)[C@@H](C)NC(=O)CNC(=O)[C@H](Cc1c[nH]c2ccccc12)NC(=O)[C@H](CCCNC(=N)N)NC(=O)[C@H](Cc1ccc(O)cc1)NC(=O)[C@@H]1CCC(=O)N1 [Example 5, L-(5-Oxoprolyl)-L-tyrosyl-L-arginyl-L-tryptophylglycyl-D-alanyl-L-leucyl-L-arginyl-N-ethyl-L-prolinamide] (HELM PEPTIDE1{[Glp].Y.R.W.G.[dA].L.R.P.[CCN[*:1]]}$$$$V2.0) |  | 60 | 2/5 | 
CC(C)C[C@H](NC(=O)[C@@H](C)NC(=O)CNC(=O)[C@H](Cc1c[nH]c2ccccc12)NC(=O)[C@H](CCCNC(=N)N)NC(=O)[C@H](Cc1ccc(O)cc1)NC(=O)[C@@H]1CCC(=O)N1)C(=O)N[C@@H](CCCNC(=N)N)C(=O)N1CCC[C@H]1C(N)=O [Example 7, L-(5-Oxoprolyl)-L-tyrosyl-L-arginyl-L-tryptophylglycyl-D-alanyl-L-leucyl-L-arginyl-L-prolyl amide] (HELM PEPTIDE1{[Glp].Y.R.W.G.[dA].L.R.P.[am]}$$$$V2.0) |  |  |  | % Inhibition of Ovulation (spontaneous ovulation; Dose 0.5 mg.): 50%; Number of Ovulating Rats (spontaneous ovulation; Dose 0.5 mg.): 3/6
CCNC(=O)[C@@H]1CCCN1C(=O)[C@H](CCCNC(=N)N)NC(=O)[C@@H](CC(C)C)NC(=O)C(C)(C)NC(=O)CNC(=O)[C@@H](Cc1c[nH]c2ccccc12)NC(=O)[C@H](CCCNC(=N)N)NC(=O)[C@H](Cc1ccc(O)cc1)NC(=O)[C@@H]1CCC(=O)N1 [Example 3, L-(5-Oxoprolyl)-L-tyrosyl-L-arginyl-D-tryptophylglycyl-(2-methylalanyl)-D-leucyl-L-arginyl-N-ethyl-L-prolinamide] (HELM PEPTIDE1{[Glp].Y.R.[dW].G.[Aib].[dL].R.P.[CCN[*:1]]}$$$$V2.0) |  |  |  | CNS depression [2]: CNS depression is noted at the anti-ovulatory dose
[pGlu]YRW-NH2 | release luteinizing hormone (LH) |  |  | Follicle stimulating hormone (FSH) release [3]: unaffected
CCNC(=O)[C@@H]1CCCN1C(=O)[C@H](Cc1c[nH]c2ccccc12)NC(=O)[C@H](CCCNC(=N)N)NC(=O)[C@H](Cc1ccc(O)cc1)NC(=O)[C@@H]1CCC(=O)N1 [Example 9, L-(5-Oxoprolyl)-L-tyrosyl-L-arginyl-L-tryptophyl-N-ethyl-2-prolin amide] (HELM PEPTIDE1{[Glp].Y.R.W.P.[CCN[*:1]]}$$$$V2.0) |  | 50 | 2/4 | 
